From paper PMC9919437 (Molecules, 2023)
Where two headings read alike, the source gives them in different places.

Columns and labels:
[1] = target: T1, BC2L-C-Nt (N-terminal lectin domain of BC2L-C) (Burkholderia cenocepacia, UniProt B4EH86); assay: biochemical; format: binding
[2] = target: T1, BC2L-C-Nt (N-terminal lectin domain of BC2L-C); settings: cited from earlier work
BC2L-C-Nt = assay: STD-NMR competition experiment with α-methyl fucoside; format: binding, Burkholderia cenocepacia; settings: 1 mol equiv α-methyl fucoside; for 4 aromatic protons only
Method: A great deal of additional information can be gained from STD competition assays, where a known binder is added to a protein–ligand mixture with the aim of displacing the ligand under study and confirm that they are both competing for the same binding site. […] The same competition experiment was performed for 4 in the presence of α-methyl fucoside. The reduction in STD intensity after the addition of the monosaccharide can be evaluated only for the aromatic protons, since the signals of galactose and methyl fucoside overlap in the region 3.8–3.6 ppm, and can be estimated around 60% (Table S2).
NMR experiments were performed on 400 MHz Bruker Avance III and 600 MHz Bruker Avance spectrometers at 298 K in deuterated or aqueous phosphate buffer at pH 7.4. When required, water suppression was achieved by excitation sculpting sequence from standard Bruker library. STD NMR experiments were performed using WATERGATE 3-9-19 pulse sequence for water suppression. […] Intensities of all STD effects (absolute STD) were calculated by division through integrals over the respective signals in STD reference spectra. The different signal intensities of the individual protons are best analyzed from the integral values in the reference and STD spectra, respectively. […]

T1 sequence (B4EH86 1-132 limits assumed): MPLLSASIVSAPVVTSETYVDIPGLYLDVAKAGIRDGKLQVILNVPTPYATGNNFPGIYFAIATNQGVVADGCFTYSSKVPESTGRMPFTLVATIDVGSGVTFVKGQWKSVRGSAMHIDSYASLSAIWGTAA

In the case of `CC(=O)N[C@H]1[C@H](O[C@H]2[C@@H](O)[C@@H](CO)OC(O)[C@@H]2O)O[C@H](CO)[C@@H](O)[C@@H]1O[C@@H]1O[C@H](CO)[C@H](O)[C@H](O)[C@H]1O[C@@H]1O[C@@H](C)[C@@H](O)[C@@H](O)[C@@H]1O` (some centres unmarked) [H-type 1 tetrasaccharide, Fucα1-2Galβ1-3GlcNAcβ1-3Gal, reference compound], the “n (stoichiometry)” value [1] is reported as 0.81 and the Kd ([1]; pH 7, read-out: KD) is reported as 56 ± 4.5 µM.
In the case of `C[C@@H]1O[C@H](C#Cc2ccc(C(C)(C)CN)cc2)[C@@H](O)[C@H](O)[C@@H]1O` [compound 1], the Kd [2] is given as 290 µM.
With `C[C@@H]1O[C@H](NC(=O)c2ccc(-c3cccc(CN)c3)o2)[C@@H](O)[C@H](O)[C@@H]1O` [compound 3] the “times less potent than the H-type 1 tetrasaccharide” value [1] was 3 and the “decrease of STD signal of the ligand after addition of α-methyl fucoside” value (BC2L-C-Nt) was 20–26%.
For `NCc1cccc(-c2ccc(C(=O)NC3OC(CO)C(O)C(O)C3O)o2)c1` (centres unmarked) [compound 4], the “factor by which activity is lower than that of 3” value [1] was 2.5, the Kd ([1]; KD) was 390 µM and the “decrease of STD signal of the ligand after addition of α-methyl fucoside” value (BC2L-C-Nt) was “around 60%”.
